The test system of one experiment is MnSOD. The experiment in a line: Real time RT-PCR of graft muscularis after SITx, MnSOD. In kind it is in vivo, LEW rats. The following applies: BV treatment. On the procedure:
Small Intestinal Transplantation. Orthotopic small intestinal transplantation (SITx) was performed in syngeneic Lewis rats. SITx with caval drainage was performed using a previously described procedure (Murase et al., in Handbook of Animal Models in Transplantation Research, Cramer et al., Eds. CRC Press, Boca Raton, Fla., pp. 203-213 (1994)). […] The graft was perfused via the aortic segment with 5 ml chilled Ringer's lactate solution, and the intestinal lumen was irrigated with 20 ml of cold saline solution containing 0.5% neomycin-sulfate (Sigma, St. Louis, Mo.). […]
SYBR green real time RT-PCR. The effects of administration of biliverdin on transplant-induced pro-inflammatory and anti-inflammatory gene expression were assessed in muscularis extracts by RT-PCR Biliverdin ([…], i.p.) was administered to both the donor and recipient three hours preoperatively. […] Equal aliquots (5 μg) of total RNA from each sample were quantified by spectrophotometry (wavelength […]) and aliquoted at a concentration of 40 ng/μl. Peak mRNA expression was quantified in duplicate by SYBR Green two-step, real-time RT-PCR. […] Real-time PCR data were plotted as the ΔRn fluorescence signal versus the cycle number. […] Quantification of mRNA expression was normalized to GAPDH and calculated relative to control using the comparative CT method (Schmittgen et al., J. Biochem. Biophys. Methods 46(1-2):69-8, 2000). […]
For orientation: In qPCR the cycle at which signal appears reflects the starting amount.

The subject of the next experiment is SITx recipients. The experiment in a line: Animal survival after SITx with 6 hours cold preservation. In kind it is in vivo, LEW rats. The following applies: 14 days follow-up; 8/8; saline control 57.1%. On the procedure:
Small Intestinal Transplantation. Orthotopic small intestinal transplantation (SITx) was performed in syngeneic Lewis rats. SITx with caval drainage was performed using a previously described procedure (Murase et al., in Handbook of Animal Models in Transplantation Research, Cramer et al., Eds. CRC Press, Boca Raton, Fla., pp. 203-213 (1994)). […] The graft was perfused via the aortic segment with 5 ml chilled Ringer's lactate solution, and the intestinal lumen was irrigated with 20 ml of cold saline solution containing 0.5% neomycin-sulfate (Sigma, St. Louis, Mo.). End-to-side anastomoses between the graft aorta and the recipient infrarenal aorta, and between the graft portal vein and recipient vena cava, were performed with 10-0 Novafil™ suture. […] The entire recipient intestine was removed and the enteric continuity was restored by proximal and distal end-to-end intestinal anastomoses. Recipient animals were given 20 mg/day prophylactic cefamandole nafate for 3 postoperative days. Transplanted recipients were given water 3 hours after surgery, and were fed 24 hours after surgery.
Animal survival. Six hours of cold preservation in UW of the intestinal graft induced intestinal dysfunction in untreated recipients; 3 out of 14 control animals died within 24 hours and an additional 3 animals died 5 and 7 days after SITx due to bowel obstruction secondarily to intestinal I/R injury. […]

A further experiment concerns HO-1. The experiment in a line: HO activity assay on spleen and heart of treated mice. In kind it is in vivo, DBA/2J mice. Conditions: 5 mg/kg i.p., one day after treatment. On the procedure: HO activity assay. DBA/2J mice were given either no treatment or CoPPIX or ZnPPIX at a dose of 5 mg/kg, i.p. (n=10 per group). One day after the treatment, the animals were sacrificed, the spleen and the heart were excised, and tissue samples were frozen at −80° C. Frozen tissue samples were homogenized in ice-cold sucrose and Tris-HCl buffer. The microsomal pellet was obtained after centrifugation and re-suspended in MgCl2-potassium phosphate buffer. Sample protein was then incubated with the reaction mixture containing rat liver cytosol, hemin, glucose-6-phosphate, glucose-6-phosphate dehydrogenase and NADPH (Sigma-Aldrich Corporation, St. Louis, Mo.) for 60 minutes at 37° C. The generated bilirubin was measured by reacting with diazotized surfanilic acid to yield azobilirubin using spectrophotometer.

SMILES strings stand for the structures. Structures can show the parent of a compound that is named as a salt.

On to `C=CC1=C(C)/C(=C/C2=NC(=C\c3[nH]c(/C=C4\NC(=O)C(C)=C4C=C)c(C)c3CCC(=O)O)/C(CCC(=O)O)=C2C)NC1=O` [biliverdin, biliverdin dihydrochloride], for which the “MnSOD expression in the graft” value in the experiment with MnSOD is listed as “significantly reduced”. Besides, the overall animal survival with SITx recipients turned out to be 100%.
As for `C=CC1=C(C)c2cc3[n-]c(cc4nc(cc5[n-]c(cc1n2)c(C)c5CCC(=O)[O-])C(CCC(=O)[O-])=C4C)c(C)c3C=C.[Co+2].[H+].[H+]` [CoPP, Cobalt protoporphyrin], in the experiment on HO-1, the HO-1 enzymatic activity entry is on record as “significantly enhanced”.

Source of the values: patent US8097585B2, “Methods of treating inflammation by administration of heme oxygenase-1 and products of heme degradation” (priority 2002, dated 2012).
